As a reminder, the inhibition is the share of the control response that was lost under treatment. The inhibition in vivo is the change of the read-out against control, counted positive when it falls.

In assay [1] the test system is benzothiazepine binding site of the L-type calcium channel. As to the kind of experiment: Diltiazem binding, L calcium channel. Further details: species or system rat. The following applies: 10 μM, percentage inhibition, [3H]-cis-(+)-diltiazem 5 nM, rat cerebral cortex membranes. As for the experimental part: Binding Investigations in the L Calcium Channel
Benzothiazepine Binding Site (Diltiazem Binding)
The biological membrane material was isolated from the rat cerebral cortex. [^3H]-cis-(+)-diltiazem (5 nM in the assay) was used as ligand. The material was incubated for 20 minutes at 25° C. The radioactivity that is measured in the presence of (±)-diltiazem (10^−6 M in the assay) is defined as non-specific binding. After completion of incubation the non-bound fraction of the radioactive ligand is separated by means of a filtration process using Whatman Glasfiber GF/B membranes. The membranes are washed and the radioactivity is then measured using a β-counter. The method is based on the details published by Schoemaker and Langer (H. Schoemaker and S. Z. Langer (1985) Eur. J. Pharmacol. 111, 273-277).
(§1) For this purpose IC50 values are obtained, which can be converted to inhibitor constants (Ki) according to the “Cheng-Prusoff equation” (Y. C. Clieng and W. H. Prusoff (1973) Biochem. Pharmacol. 22, 3099-3108). The IC50 values were obtained by means of the computer program “Figure P” (version 6.0, Biosoft, Cambridge, England). Km values were calculated according to Lineweaver and Burk (H. Lineweaver and D. Burk (1934) J. Am. Chem. Soc. 56, 658-666). The “Ligand” computer program (version 4, Biosoft, England) was used to obtain Ken values.

Assay [2] addresses T1, NA transporter (Rattus norvegicus, UniProt Q63380).
T1 construct: synaptosomes are isolated fresh from rat brains; from tissue; host or cells: rat hypothalamus synaptosomes (P2 fraction)
As to the kind of experiment: synaptosomal noradrenaline uptake inhibition (NA uptake inhibition). Format: biochemical. The following applies: for inhibition at 1 µM: read-out: NA Uptake Inhibition at 1 μM, 1 μM in the assay, synaptosomes from rat hypothalamus; for NA Uptake Inhibition at 1 μM: 1 μM in the assay, synaptosomes from rat hypothalamus. The procedure:
In order to carry out these in vitro studies, synaptosomes are isolated fresh from rat brains. In each case a so-called “P2” fraction is used, which is prepared according to the protocol of Gray and Whittaker (E. G. Gray and V. P. Whittaker (1962) J. Anat. 76, 79-88).
(in each case N=4, i.e. mean values±SEM from 4 independent series of experiments that were carried out in the form of triple parallel experiments).
as §1

The subject of assay [3] is phenylquinone-induced writhing reaction. As to the kind of experiment: phenylquinone-induced writhing test in mice. The following applies: male NMRI mice, phenylquinone i.p. 10 minutes later; for inhibition in vivo at 10 mg/kg: Mus musculus, iv, 10 min, 10 mg/kg intravenously. Format: in vivo. As for the experimental part:
Analgesic Effect in the Writhing Test in Mice
The analgesic effect was investigated in the phenylquinone-induced writhing test in mice (as modified by I. C. Hendershot and J. Forsaith (1959) J. Pharmacol. Exp. Ther. 125, 237-240). Male NMRI mice weighing 25 to 30 g were used for the test. Groups of 10 animals each received by intraperitoineal application, for each substance dose, 0.3 ml/mouse of a 0.02% aqueous solution of phenylquinone (phenylbenzoquinone, Sigma Company, Deisenhofen; solution prepared with addition of 5% of ethanol and kept in a water bath at 45° C.) 10 minutes after intravenous administration of the test substances. The animals were placed individually in observation cages. The number of pain-induced stretching movements (so-called writhing reactions=straightening of the body together with stretching of the rear extremities) was measured by means of a push-button counter 5 to 20 minutes after administration of the phenylquinone. Animals that had received only physiological saline solution served as controls. All substances were tested in the standard dose of 10 mg/kg. The percentage inhibition (% inhibition) of the writhing reaction produced by a substance was calculated according to the following formula: [formula]

Assay [4] relates to binding site 2 of the sodium channel. As to the kind of experiment: BTX binding, sodium channel. The following applies: 10 μM, percentage inhibition, [3H]-batrachotoxin A20 α-benzoate 10 nM, rat cerebral cortex synaptosomes. As for the experimental part: Binding Investigations in the Sodium Channel
Binding Site 2 (BTX Binding)
The binding site 2 of the sodium channel is the so-called batrachotoxin (BTX) binding site. [^3H]-batrachlotoxin A20 α-benzoate (10 nM in the assay) was used as ligand. These ion channel particles (synaptosomes) were concentrated from rat cerebral cortex according to the procedure of Gray and Whittaker (E. G. Gray and V. P. Whittaker (1962) J. Anat. 76, 79-88). The radioactivity that is measured in the presence of veratridine (0.3 mM in the assay) is defined as non-specific binding. The material was incubated at 37° C. for 120 minutes. The assay conditions are carried out according to the protocol published by Pauwels, Leysen and Laduron (P. J. Pauwels, J. E. Leysen and P. M. Laduron (1986) Eur. J. Pharmacol. 124, 291-298).
(N=3, i.e. mean values±SEM from 3 independent series of experiments that were carried out in the form of triple parallel experiments).
as §1

T1 sequence (Q63380 1-617): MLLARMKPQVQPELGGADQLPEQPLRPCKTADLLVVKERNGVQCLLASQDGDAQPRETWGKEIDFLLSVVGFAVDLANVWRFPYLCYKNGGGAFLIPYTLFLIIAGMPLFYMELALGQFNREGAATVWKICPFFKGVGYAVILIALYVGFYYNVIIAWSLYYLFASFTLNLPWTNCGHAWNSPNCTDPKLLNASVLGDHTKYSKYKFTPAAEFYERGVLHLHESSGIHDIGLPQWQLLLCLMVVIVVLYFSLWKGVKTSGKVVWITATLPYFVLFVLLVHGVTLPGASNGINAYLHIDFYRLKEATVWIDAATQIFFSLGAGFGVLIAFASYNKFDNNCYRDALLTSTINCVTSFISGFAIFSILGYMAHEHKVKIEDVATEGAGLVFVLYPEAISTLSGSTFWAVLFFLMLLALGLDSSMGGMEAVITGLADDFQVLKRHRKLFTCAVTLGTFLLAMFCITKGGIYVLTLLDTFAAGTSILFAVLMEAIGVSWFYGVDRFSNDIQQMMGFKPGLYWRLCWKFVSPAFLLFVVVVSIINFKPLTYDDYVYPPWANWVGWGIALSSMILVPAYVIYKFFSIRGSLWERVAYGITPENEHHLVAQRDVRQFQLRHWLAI

As to `CN(C)C(c1ccc(Cl)c(Cl)c1)C1CCCCC1(O)Cc1ccccc1.Cl` (centres unmarked) [Example 39, 1-benzyl-2-[(3,4-dichlorophenyl)dimethylaminomethyl]cyclohexanol, hydrochloride], the “Diltiazem Binding at 10 μM” value in assay [1] came to 76%. The inhibition at 1 µM in assay [2] was 61%. Besides, in assay [3], 10 mg/kg produced 94% inhibition in vivo. The “BTX Binding at 10 μM” value in assay [4] turned out to be 97%.
As for `CN(C)C(c1ccc(Cl)c(Cl)c1)C1CCCCC1(O)CCc1ccccc1.Cl` (centres unmarked) [Example 40, 2-[(3,4-dichlorophenyl)dimethylaminomethyl]-1-phenethylcyclohexanol, hydrochloride], the “Diltiazem Binding at 10 μM” value in assay [1] worked out at 86%. Further, in assay [2], the inhibition at 1 µM came to 58%. The compound also had an inhibition in vivo at 10 mg/kg in assay [3] of 72%. Besides, in assay [4], the “BTX Binding at 10 μM” value was 98%.
Take `CN(C)C(c1ccc(F)cc1)C1CCCCC1(O)Cc1ccccc1.Cl` (centres unmarked) [Example 41, 1-benzyl-2-[dimethylamino-(4-fluorophenyl)methyl]cyclohexanol, hydrochloride]: the “Diltiazem Binding at 10 μM” value in assay [1] stood at 87%. In addition, the inhibition at 1 µM in assay [2] was 100%. 10 mg/kg produced 88% inhibition in vivo in assay [3]. The “BTX Binding at 10 μM” value in assay [4] was found to be 94%.
As for `CN(C)C(c1cccc(Cl)c1)C1CCCCC1(O)c1ccccc1.Cl` (centres unmarked) [Example 42], the “Diltiazem Binding at 10 μM” value in assay [1] came to 50%. Moreover, the “NA Uptake Inhibition at 1 μM” value in assay [2] is reported as 82%. Besides, the “% Inhibition of the writhing reaction at 10 mg/kg intravenously” value in assay [3] amounted to 76%. Further, the “BTX Binding at 10 μM” value in assay [4] came out at 89%.
`CN(C)CC1CCCCC1(O)c1ccc(Cl)cc1Cl.Cl` (centres unmarked) [Example 43, 1-(2,4-dichlorophenyl)-2-(3-dimethylaminomethyl)-1-cyclohexanol, hydrochloride]: the “Diltiazem Binding at 10 μM” value in assay [1] is 73%. The “NA Uptake Inhibition at 1 μM” value in assay [2] was 14%. In assay [3], the “% Inhibition of the writhing reaction at 10 mg/kg intravenously” value worked out at 80%. Besides, the “BTX Binding at 10 μM” value in assay [4] is 94%.
As for `CN(C)C(c1cccc(Cl)c1)C1CCCCC1(O)Cc1ccccc1.Cl` (centres unmarked) [Example 44, 1-benzyl-2-[(3-chlorophenyl)dimethylaminomethyl]cyclohexanol, hydrochloride], the “Diltiazem Binding at 10 μM” value in assay [1] was found to be 71%. Moreover, the inhibition at 1 µM in assay [2] was 99%. This compound came in with an inhibition in vivo at 10 mg/kg in assay [3] of 100%. In addition, in assay [4], the “BTX Binding at 10 μM” value came out at 95%.
Turning to `CN(C)C(c1ccccc1Cl)C1CCCCC1(O)Cc1ccccc1.Cl` (centres unmarked) [Example 45, 1-benzyl-2-[(2-chlorophenyl)dimethylaminomethyl]cyclohexanol, hydrochloride], the “Diltiazem Binding at 10 μM” value in assay [1] was 67%. The inhibition at 1 µM in assay [2] is 89%. The same compound gave an inhibition in vivo at 10 mg/kg in assay [3] of 82%. For the same compound, the “BTX Binding at 10 μM” value in assay [4] is listed as 96%.
For the compound `CN(C)C(c1ccc(Cl)c(Cl)c1)C1CCCCC1(O)Cc1ccc(C(C)(C)C)cc1.Cl` (centres unmarked) [Example 46, 1-(4-tert.-butylbenzyl)-2-[(3,4-dichlorophenyl)dimethylaminomethyl]cyclohexanol, hydrochloride], in assay [1], the “Diltiazem Binding at 10 μM” value turned out to be 93%. In addition, the inhibition at 1 µM in assay [2] turned out to be 35%. In addition, in assay [3], the inhibition in vivo at 10 mg/kg was 68%. In addition, the “BTX Binding at 10 μM” value in assay [4] was found to be 96%.
Turning to `CN(C)C(c1ccc(F)cc1)C1CCCCC1(O)Cc1cccc(C(F)(F)F)c1.Cl` (centres unmarked) [Example 47, 2-[dimethylamino-(4-fluorophenyl)methyl]-1-(3-trifluoromethylbenzyl)cyclohexanol, hydrochloride], the “Diltiazem Binding at 10 μM” value in assay [1] is 84%. Besides, in assay [2], the inhibition at 1 µM came out at 100%. The inhibition in vivo at 10 mg/kg in assay [3] is 89%. Further, the “BTX Binding at 10 μM” value in assay [4] was found to be 100%.
On to `CN(C)C(c1ccccc1)C1CCCCC1(O)C1CCCCC1.Cl` (centres unmarked) [Example 48, 2-(dimethylaminophenylmethyl)bicyclohexyl-1-ol, hydrochloride], for which the “Diltiazem Binding at 10 μM” value in assay [1] was 86%. In addition, the inhibition at 1 µM in assay [2] is 29%. In assay [3], this compound returned an inhibition in vivo at 10 mg/kg of 94%. For the same compound, in assay [4], the “BTX Binding at 10 μM” value worked out at 96%.
Turning to `COc1ccc(CC2(O)CCCCC2C(c2ccccc2)N(C)C)cc1.Cl` (centres unmarked) [Example 49, 2-(dimethylaminophenylmethyl)-1-(4-methoxybenzyl)cyclohexanol, hydrochloride], the “Diltiazem Binding at 10 μM” value in assay [1] was 93%. Also, in assay [2], the inhibition at 1 µM came out at 100%. For the same compound, in assay [3], the inhibition in vivo at 10 mg/kg is 100%. Besides, the “BTX Binding at 10 μM” value in assay [4] is given as 90%.
For `CN(C)C(c1ccccc1)C1CCCCC1(O)Cc1ccc(F)cc1F.Cl` (centres unmarked) [Example 50, 1-(2,4-difluorobenzyl)-2-(dimethylaminophenylmethyl)cyclohexanol, hydrochloride], in assay [1], the “Diltiazem Binding at 10 μM” value turned out to be 93%. Further, the inhibition at 1 µM in assay [2] stood at 100%. The same compound gave an inhibition in vivo at 10 mg/kg in assay [3] of 85%. Further, the “BTX Binding at 10 μM” value in assay [4] was determined as 95%.
On to `CN(C)C(c1cccc(Cl)c1)C1CCCCC1(O)Cc1ccc(C(C)(C)C)cc1.Cl` (centres unmarked) [Example 51, 1-(4-tert.-butylbenzyl)-2-[(3-chlorophenyl)dimethylaminomethyl]cyclohexanol, hydrochloride], for which, in assay [1], the “Diltiazem Binding at 10 μM” value amounted to 77%. Also, the inhibition at 1 µM in assay [2] came to 10%. Besides, in assay [3], the inhibition in vivo at 10 mg/kg came to 99%. The “BTX Binding at 10 μM” value in assay [4] came to 99%.
On to `CN(C)C(c1cccc(Oc2ccccc2)c1)C1CCCCC1(O)CCc1ccccc1.Cl` (centres unmarked) [Example 52, 2-[dimethylamino-(3-phenoxyphenyl)methyl]-1-phenethylcyclohexanol, hydrochloride], for which the “Diltiazem Binding at 10 μM” value in assay [1] came out at 98%. Moreover, in assay [2], the inhibition at 1 µM was found to be 38%. Moreover, in assay [3], at 10 mg/kg the inhibition in vivo was 70%. For the same compound, the “BTX Binding at 10 μM” value in assay [4] worked out at 99%.
For the compound `CN(C)C(c1cccc(Oc2ccccc2)c1)C1CCCCC1(O)Cc1cccc(C(F)(F)F)c1.Cl` (centres unmarked) [Example 53, 2-[dimethylamino-(3-phenoxyphenyl)methyl]-1-(3-trifluoromethylbenzyl)cyclohexanol, hydrochloride], in assay [1], the “Diltiazem Binding at 10 μM” value came out at 92%. The inhibition at 1 µM in assay [2] turned out to be 49%. The same compound displayed an inhibition in vivo at 10 mg/kg in assay [3] of 90%. The “BTX Binding at 10 μM” value in assay [4] worked out at 97%.
Take `CN(C)C(c1ccccc1)C1CCCCC1(O)Cc1cc(F)ccc1F.Cl` (centres unmarked) [Example 54, 1-(2,5-difluorobenzyl)-2-(dimethylaminophenylmethyl)cyclohexanol, hydrochloride]: the “Diltiazem Binding at 10 μM” value in assay [1] is 76%. The inhibition at 1 µM in assay [2] was determined as 96%. This compound also had an inhibition in vivo at 10 mg/kg in assay [3] of 98%. Besides, the “BTX Binding at 10 μM” value in assay [4] is listed as 98%.
`CN(C)C(c1ccccc1)C1CCCCC1(O)Cc1ccc(F)c(F)c1.Cl` (centres unmarked) [Example 55, 1-(3,4-difluorobenzyl)-2-(dimethylaminophenylmethyl)cyclohexanol, hydrochloride]: the “Diltiazem Binding at 10 μM” value in assay [1] is listed as 76%. Also, the inhibition at 1 µM in assay [2] amounted to 38%. The same compound showed an inhibition in vivo at 10 mg/kg in assay [3] of 92%. Besides, in assay [4], the “BTX Binding at 10 μM” value is 94%.

The values above are taken from patent US6410790B1, “3-amin3-arylpropan-1-ol compounds, their preparation and use” (priority 1999, dated 2002).
